Laboratory results as given in ChEMBL document CHEMBL4118125, “MK-8325: A silyl proline-containing NS5A inhibitor with pan-genotype activity for treatment of HCV” (Bioorg Med Chem Lett, 2018).

Tests used:
[1] = Drug level in Sprague-Dawley rat at 5 mg/kg, po after 24 hrs by LC-MS/MS method; assay type: ADME, organism-based; conditions: in vivo, read-out: Drug uptake
[2] = Oral bioavailability in fasted dog at 2 mg/kg by LC-MS/MS method; assay type: ADME, organism-based, Canis lupus familiaris; conditions: in vivo
[3] = Tmax in beagle dog at 2 mg/kg, po by LC-MS/MS method; assay type: ADME, organism-based, Canis lupus familiaris; conditions: in vivo
[4] = Cmax in cynomolgus monkey at 2 mg/kg, po by LC-MS/MS method; assay type: ADME, organism-based, Macaca fascicularis; set-up: dose 2 mg/kg, route oral; conditions: in vivo
[5] = Oral bioavailability in Sprague-Dawley rat at 5 mg/kg by LC-MS/MS method; assay type: ADME, organism-based; conditions: in vivo
[6] = Oral bioavailability in cynomolgus monkey at 2 mg/kg by LC-MS/MS method; assay type: ADME, organism-based, Macaca fascicularis; conditions: in vivo
[7] = Tmax in cynomolgus monkey at 2 mg/kg, po by LC-MS/MS method; assay type: ADME, organism-based, Macaca fascicularis; conditions: in vivo
[8] = Clearance in Sprague-Dawley rat at 2.5 mg/kg, iv by LC-MS/MS method; assay type: ADME, organism-based; conditions: in vivo
[9] = Cmax in Sprague-Dawley rat at 5 mg/kg, po by LC-MS/MS method; assay type: ADME, organism-based; set-up: dose 5 mg/kg, route oral; conditions: in vivo
[10] = Effective half life in beagle dog at 1 mg/kg, iv by LC-MS/MS method; assay type: ADME, organism-based, Canis lupus familiaris; conditions: in vivo, read-out: t1/2eff (converted)
[11] = AUC in Sprague-Dawley rat at 5 mg/kg, po by LC-MS/MS method; assay type: ADME, organism-based; conditions: in vivo
[12] = Cmax in beagle dog at 2 mg/kg, po by LC-MS/MS method; assay type: ADME, organism-based, Canis lupus familiaris; set-up: dose 2 mg/kg, route oral; conditions: in vivo
[13] = Drug level in cynomolgus monkey at 2 mg/kg, po after 24 hrs by LC-MS/MS method; assay type: ADME, organism-based, Macaca fascicularis; conditions: in vivo, read-out: Drug uptake
[14] = Clearance in beagle dog at 1 mg/kg, iv by LC-MS/MS method; assay type: ADME, organism-based, Canis lupus familiaris; conditions: in vivo
[15] = Terminal half life in cynomolgus monkey at 1 mg/kg, iv by LC-MS/MS method; assay type: ADME, organism-based, Macaca fascicularis; conditions: in vivo, read-out: beta t1/2 (converted)
[16] = Oral bioavailability in beagle dog at 2 mg/kg by LC-MS/MS method; assay type: ADME, organism-based, Canis lupus familiaris; conditions: in vivo
[17] = Drug level in beagle dog at 2 mg/kg, po after 24 hrs by LC-MS/MS method; assay type: ADME, organism-based, Canis lupus familiaris; conditions: in vivo, read-out: Drug uptake
[18] = Terminal half life in beagle dog at 1 mg/kg, iv by LC-MS/MS method; assay type: ADME, organism-based, Canis lupus familiaris; conditions: in vivo, read-out: beta t1/2 (converted)
[19] = AUC in cynomolgus monkey at 2 mg/kg, po by LC-MS/MS method; assay type: ADME, organism-based, Macaca fascicularis; conditions: in vivo
[20] = Volume of distribution at steady state in Sprague-Dawley rat at 2.5 mg/kg, iv by LC-MS/MS method; assay type: ADME, organism-based; conditions: in vivo, read-out: Vdss
[21] = tested on: Rattus norvegicus; assay: Dose normalized AUC in Sprague-Dawley rat at 5 mg/kg, po by LC-MS/MS method; assay type: ADME, organism-based; conditions: in vivo
[22] = Clearance in cynomolgus monkey at 1 mg/kg, iv by LC-MS/MS method; assay type: ADME, organism-based, Macaca fascicularis; conditions: in vivo
[23] = Effective half life in cynomolgus monkey at 1 mg/kg, iv by LC-MS/MS method; assay type: ADME, organism-based, Macaca fascicularis; conditions: in vivo, read-out: t1/2eff (converted)
[24] = tested on: Canis familiaris; assay: Dose normalized AUC in beagle dog at 2 mg/kg, po by LC-MS/MS method; assay type: ADME, organism-based, Canis lupus familiaris; conditions: in vivo
[25] = Terminal half life in Sprague-Dawley rat at 2.5 mg/kg, iv by LC-MS/MS method; assay type: ADME, organism-based; conditions: in vivo, read-out: beta t1/2 (converted)
[26] = Volume of distribution at steady state in cynomolgus monkey at 1 mg/kg, iv by LC-MS/MS method; assay type: ADME, organism-based, Macaca fascicularis; conditions: in vivo, read-out: Vdss
[27] = AUC in beagle dog at 2 mg/kg, po by LC-MS/MS method; assay type: ADME, organism-based, Canis lupus familiaris; conditions: beagle, in vivo
[28] = Volume of distribution at steady state in beagle dog at 1 mg/kg, iv by LC-MS/MS method; assay type: ADME, organism-based, Canis lupus familiaris; conditions: in vivo, read-out: Vdss
[29] = Tmax in Sprague-Dawley rat at 5 mg/kg, po by LC-MS/MS method; assay type: ADME, organism-based; conditions: in vivo
[30] = Effective half life in Sprague-Dawley rat at 2.5 mg/kg, iv by LC-MS/MS method; assay type: ADME, organism-based; conditions: in vivo, read-out: t1/2eff (converted)
[31] = tested on: Cynomolgus monkey; assay: Dose normalized AUC in cynomolgus monkey at 2 mg/kg, po by LC-MS/MS method; assay type: ADME, organism-based, Macaca fascicularis; conditions: in vivo

Compound: COC(=O)N[C@H](C(=O)N1CC(F)(F)C[C@H]1c1ncc(-c2ccc(-c3ccc4c(ccc5nc([C@@H]6C[Si](C)(C)CN6C(=O)[C@@H](NC(=O)OC)C(C)C)[nH]c54)c3)cc2)[nH]1)C(C)C.Cl.Cl
- concentration at 24 h [1]: 51 nM
- bioavailability [2]: 9%
- Tmax [3]: 2.7 h
- Cmax [4]: 180 nM
- bioavailability [5]: 28%
- bioavailability [6]: 11.7%
- Tmax [7]: 4.7 h
- clearance [8]: 5.6 mL/min/kg
- Cmax [9]: 330 nM
- half-life [10]: 18 h
- AUC [11]: 5 µM·h
- Cmax [12]: 270 nM
- concentration at 24 h [13]: 55 nM
- clearance [14]: 0.8 mL/min/kg
- half-life [15]: 20 h
- bioavailability [16]: 8.7%
- concentration at 24 h [17]: 40 nM
- half-life [18]: 26 h
- AUC [19]: 4 µM·h
- Vd [20]: 3.7 L/kg
- AUC/dose [21]: 1 µM·h/mg/kg
- clearance [22]: 1.2 mL/min/kg
- half-life [23]: 17 h
- AUC/dose [24]: 2.1 µM·h/mg/kg
- half-life [25]: 9.7 h
- Vd [26]: 1.7 L/kg
- AUC [27]: 4.2 µM·h
- Vd [28]: 1.3 L/kg
- Tmax [29]: 5.3 h
- half-life [30]: 7.6 h
- AUC/dose [31]: 2 µM·h/mg/kg
